Here are results for one molecule from patent publication US20240309014A1, “MACROCYCLIC COMPOUNDS AND USES THEREOF” (President and Fellows of Harvard College, priority 2017, published 2024).

One assay has as its system U2OS-EB3-AG cells. Nature of the assay: Antiproliferative activity in U2OS-EB3-AG cells. The format is cell-based.
Assay [1] relates to Tenascin-C and EDA-fibronectin. Nature of the assay: Effects on Tenascin-C and EDA-fibronectin in the FaDu subcutaneous model (FIG. 15). The conditions noted are these: Compound (1) 180 μg/kg + cetuximab 10 mg/kg on Day 1, tumors five days after, vs control tumors. The format is in vivo, nude mice. How it is done:
A human squamous cell carcinoma of the head and neck (SCCHN) cell line FaDu, which had been cultured in an RPMI-1640 medium containing 10% FBS, and penicillin-streptomycin (culture medium), was adjusted to a concentration of 5×10^7 cells/mL with culture medium to prepare a cell suspension. The cell suspension was inoculated in a volume of 100 μL into a subcutaneous part of a right flank of nude mice, 6 weeks of ages (CAnN.Cg-Foxnlnu/CrlCrlj, female, Charles River Laboratories Japan, Inc.). Ten days after cell inoculation, the mice were grouped such that averages of the tumor volumes were substantially equal among the groups. The experiment was conducted on groups each consisting of 5 mice. Compound (1) was dissolved in DMSO and a solution was stored in the freezer before use. […] Five days after the single administration, tumor samples were collected and fixed with IHC Zinc Fixative (BD Pharmingen) at 4° C. for 24 hr. Paraffin-embedded tissues were sectioned (3 μm), mounted on positively charged slides, and air-dried. Sections were deparaffinized, conditioned and the antigens were retrieved using microwave with 1 mM EDTA at pH 6.0 for Tenascin-C. For EDA-fibronectin, the antigens retrieval procedure was not necessary. […]

Assay [2] concerns human fibrosarcoma cell line HT-1080 xenograft. Kind of assay: HT-1080 xenograft as monotherapy (FIG. 17). It is filed as in vivo, athymic mice. The conditions noted are these: 180 μg/kg i.v. Day 1 and Day 8. How it is done: A human fibrosarcoma cell line HT-1080, which had been cultured in an E-MEM containing 10% FBS, NEAA and antibiotics was adjusted to a concentration of 3×10^7 cells/mL with medium to prepare a cell suspension. The cell suspension was inoculated in a volume of 100 μL into a subcutaneous part of a right flank of athymic mice (CAnN.Cg-Foxnlnu/CrlCrlj, female, 6 weeks old, Charles River Japan Inc.). Six days after cell inoculation (Day 1), the length and the width of a tumor in each mouse were measured by using an electronic digital caliper (Mitutoyo Corporation), so as to calculate the volume of the tumor in accordance with the following calculation formula: […]
On the basis of TV, the mice were randomly grouped (Day 1). Each group was consisted in six mice. Compound (1) was dissolved in DMSO and a solution was stored in the freezer before use. Compound (1) (180 μg/kg) was diluted with saline and intravenously injected on Day 1 and Day 8.

The subject of assay [3] is human endometrial cancer cell line HEC-108 xenograft. Nature of the assay: HEC-108 endometrial cancer xenograft as monotherapy (FIG. 18). It is filed as in vivo, athymic mice. The conditions noted are these: 180 μg/kg i.v. Day 1 and Day 8. How it is done:
A human endometrial cancer cell line HEC-108, which had been cultured in an E-MEM containing 15% FBS and antibiotics were adjusted to a concentration of 7.14×10^7 cells/mL with medium to prepare a cell suspension. The cell suspension was inoculated in a volume of 150 μL into a subcutaneous part of a right flank of athymic mice (CAnN.Cg-Foxnlnu/CrlCrlj, female, 6 weeks old, Charles River Japan Inc.). Thirteen days after cell inoculation (Day 1), the length and the width of a tumor in each mouse were measured by using an electronic digital caliper (Mitutoyo Corporation), so as to calculate the volume of the tumor in accordance with the following calculation formula: […]
On the basis of TV, the mice were randomly grouped (Day 1). Each group was consisted in six mice. Compound (1) was dissolved in DMSO and a solution was stored in the freezer before use. Compound (1) (180 μg/kg) was diluted in saline and intravenously injected on Day 1 and Day 8.

For assay [4], the system named is human endometrial cancer cell line AN3CA xenograft. Nature of the assay: AN3CA endometrial cancer xenograft as monotherapy (FIG. 18). The format is in vivo, nude mice. The conditions noted are these: 180 μg/kg i.v. Day 1 and Day 8. How it is done:
A human endometrial cancer cell line AN3CA, which had been cultured in an E-MEM containing 10% FBS, and penicillin-streptomycin, was adjusted to a concentration of 1.4×10^8 cells/mL with Hanks' Balanced Salt Solution to prepare a cell suspension, and the suspension was mixed with Geltrex® (Thermo Fisher Scientific Inc., #A1413202) in a ratio of 1:1 to prepare a cell suspension in a concentration of 7×10^7 cells/mL. The cell suspension was inoculated in a volume of 100 μL into a subcutaneous part of a right flank of nude mice, 6 weeks of ages (CAnN.Cg-Foxnlnu/CrlCrlj, female, Charles River Laboratories Japan Inc.). Twelve days after cell inoculation (Day 1), the shortest diameter and the longest diameter of a tumor in each mouse were measured by using an electronic digital caliper (Digimatic™ caliper, Mitutoyo Corporation), so as to calculate the volume of the tumor in accordance with the following calculation formulae: […]
On the basis of the volumes of tumors obtained on Day 1, the mice were grouped such that averages of the tumor volumes were substantially equal among the groups. The experiment was conducted on groups each consisting of five mice. The test compound was dissolved in DMSO and a solution was stored in the freezer before use. Immediately before the administration, the stock solution was diluted with saline. […]

As for `C=C1C[C@@H]2CC[C@@]34C[C@H]5O[C@H]6[C@@H](O3)[C@H]3O[C@H](CC[C@@H]3O[C@H]6C5O4)CC(=O)O[C@@H]3[C@@H](C)[C@@H]4O[C@@H]5C[C@]6(C[C@@H]7O[C@]8(C[C@H](C)[C@@H]9O[C@H](CN)[C@H](O)C[C@@H]9O8)C[C@H](C)[C@@H]7O6)O[C@@H]5C[C@@H]4O[C@H]3C[C@H]3O[C@@H](CC[C@@H]1O2)C[C@@H](C)C3=C` (stereo in doubt) [Compound (1)], the IC50 (as a rule, the concentration needed to halve the response being measured) in the assay on U2OS-EB3-AG cells is 0.5 nM. The “expression levels of Tenascin-C and ED-A fibronectin” value in assay [1] is “reduced”. For the same molecule, the antitumor activity result in assay [2] is recorded as “tumor regression”; in assay [3] it was “tumor growth delay”; in assay [4], “tumor regression”.
